According to PubChem BioAssay AID588381 (NMMLSC, 2011):
The source made the active and inactive calls.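 The calls were made as follows: active = half-maximal concentration at most 10 µM from a sound curve fit, with response shifting 30% or more across doses; inactive = the rest.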

Biological target: GTPase HRas (Homo sapiens) (UniProt P01112)
Test: activated H-Ras mutant GTP-binding inhibitors, SAR follow-up, selectivity assay for Cdc42 probe extension project, biochemical, multiplex bead flow cytometry, round 1 (AID 588381)
Conditions: GST-H-Ras act beads, Bodipy-FL-GTP binding; for response, lower = inhibition: at 100 µM (top of the series)

Sequence of GTPase HRas (Homo sapiens) (P01112 whole entry, looked up): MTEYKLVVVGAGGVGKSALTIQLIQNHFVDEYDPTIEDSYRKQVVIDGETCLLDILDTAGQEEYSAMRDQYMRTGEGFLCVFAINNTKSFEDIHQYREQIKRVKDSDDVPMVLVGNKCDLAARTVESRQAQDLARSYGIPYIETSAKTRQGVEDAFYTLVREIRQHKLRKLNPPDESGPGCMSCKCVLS

Row | response, lower = inhibition | EC50 [nM] | Structure (SMILES)
1 | inactive | – | NS(=O)(=O)c1ccc(N2N=C(c3ccccc3)CC2c2ccccc2)cc1 (centres undefined)
2 | – | 82 | CC1(C)Cc2c(sc(NC(=S)NC(=O)c3ccccc3)c2C(=O)O)CO1
3 | inactive | – | COc1ccc(C2CC(c3ccccc3)=NN2c2ccc(S(N)(=O)=O)cc2)cc1 (centres undefined)
4 | inactive | – | O=C(C#Cc1ccccc1)c1cccc([N+](=O)[O-])c1
